Measurements reported in the NIST ThermoML archive (doi:10.1021/je100300s).

Experiment: refractive index (Na D-line) (dimensionless); xn = mol fraction of the nth substance listed
Details: 101 kPa, Liquid, Standard Abbe refractometry

CC(O)CN (stereo not drawn) [1-amino-2-propanol] + O
refractive index
Details | 293.15 K | 298.15 K | 303.15 K | 308.15 K | 313.15 K | 318.15 K | 323.15 K | 328.15 K | 333.15 K
x1 = 0.05 | 1.35692 | 1.35622 | 1.35539 | 1.35453 | 1.35365 | 1.35269 | 1.35169 | 1.35059 | 1.35023
x1 = 0.07 | 1.36527 | 1.36437 | 1.36345 | 1.36246 | 1.36149 | 1.36047 | 1.35931 | 1.35816 | 1.35711
x1 = 0.0986 | 1.3763 | 1.37524 | 1.37416 | 1.37306 | 1.37191 | 1.37079 | 1.36955 | 1.36821 | 1.36712
x1 = 0.1993 | 1.40333 | 1.40184 | 1.40038 | 1.39868 | 1.39716 | 1.39563 | 1.39469 | 1.39247 | 1.39103
x1 = 0.3003 | 1.41934 | 1.41723 | 1.41554 | 1.41385 | 1.41214 | 1.41051 | 1.40883 | 1.4072 | 1.40563
x1 = 0.3955 | 1.42844 | 1.4268 | 1.42513 | 1.42331 | 1.42155 | 1.41987 | 1.41801 | 1.4164 | 1.4146
x1 = 0.4929 | 1.43452 | 1.43286 | 1.431 | 1.42913 | 1.4273 | 1.42548 | 1.42386 | 1.4226 | 1.42038
x1 = 0.5995 | 1.43934 | 1.4377 | 1.4359 | 1.43375 | 1.43187 | 1.43017 | 1.42857 | 1.42697 | 1.42445
x1 = 0.7002 | 1.44298 | 1.44053 | 1.43897 | 1.43685 | 1.43493 | 1.43243 | 1.43146 | 1.43006 | 1.42775
x1 = 0.8006 | 1.44474 | 1.44287 | 1.4411 | 1.43908 | 1.43715 | 1.43532 | 1.43369 | 1.43134 | 1.42949
x1 = 0.8992 | 1.44655 | 1.4447 | 1.44275 | 1.44076 | 1.43889 | 1.43691 | 1.4349 | 1.43292 | 1.43089
x1 = 1 | 1.448 | 1.44609 | 1.44409 | 1.44211 | 1.44009 | 1.43817 | 1.43631 | 1.43405 | 1.43208
